Laboratory results from ChEMBL document CHEMBL4354794, “Potential Anticancer Agents Characterized from Selected Tropical Plants” (J Nat Prod, 2019).
Values belong to the compound of their own block, whether it stands above or below them.

Columns and labels:
HT-29 [1] = assay: Antiproliferative activity against human HT-29 cells assessed as reduction in cell viability; type: functional, cell-based
HepG2 = assay: Antiproliferative activity against human HepG2 assessed as reduction in cell viability incubated for 48 hrs by AlamarBlue assay; type: functional, cell-based; details: HepG2, 48 h
HT-29 [2] = assay: Antiproliferative activity against human HT-29 cells assessed as reduction in cell viability after 3 days by SRB assay; type: functional, cell-based; details: HT-29, 72 h
A549 = assay: Antiproliferative activity against human A549 cells assessed as reduction in cell viability after 48 hrs by MTT assay; type: functional, cell-based; details: A549, 48 h
BGC-823 = assay: Antiproliferative activity against human BGC823 cells assessed as reduction in cell viability after 48 hrs by MTT assay; type: functional, cell-based; details: BGC-823, 48 h
[3] = Antiproliferative activity against human KKU100 cells assessed as reduction in cell viability after 72 hrs by SRB assay; type: functional, cell-based; details: KKU100, 72 h
HL-60 = assay: Antiproliferative activity against human HL60 cells assessed as reduction in cell viability after 3 days by trypan blue dye based hemocytometer counting method; type: functional; details: HL-60, 72 h
NCI-H1650 = assay: Antiproliferative activity against human NCI-H1650 cells assessed as reduction in cell viability after 72 hrs by CellTiter-Glo assay; type: functional, cell-based; details: NCI-H1650, 72 h
SNB-19 = assay: Antiproliferative activity against human SNB19 cells; type: functional, cell-based

SMILES: CC(C)=CCc1c2c(c(O)c3c1O[C@]14C(=C[C@H]5C[C@@H]1C(C)(C)O[C@@]4(C/C=C(/C)C(=O)O)C5=O)C3=O)C=CC(C)(C)O2
IC50 (HT-29 [2]): 360 nM

SMILES: CCCCCCCCCCCCCCCC(=O)OC[C@H]1O[C@@H](O[C@H]2CC[C@@]3(C)C(=CC[C@H]4[C@@H]5CC[C@H]([C@H](C)CC[C@@H](CC)C(C)C)[C@@]5(C)CC[C@@H]43)C2)[C@H](O)[C@@H](O)[C@@H]1O
IC50 (HT-29 [2]): > 10000 nM

SMILES: CC(C)=CCC12OC(C)(C)C3CC(C=C4C(=O)c5c(O)cc(O)cc5OC431)C2=O (stereo unspecified)
IC50 (A549): 4100 nM
IC50 (BGC-823): 5900 nM

SMILES: COCOc1cc(O)c2c(c1)OC13C(=CC4CC1C(C)(C)OC3(C/C=C(\C)CO)C4=O)C2=O (stereo unspecified)
IC50 (A549): 2500 nM
IC50 (BGC-823): 3800 nM

SMILES: CC(C)=CCc1c(O)cc(O)c2c1O[C@]13C(=C[C@H]4C[C@@H]1C(C)(C)O[C@@]3(CC=C(C)C)C4=O)C2=O
IC50 [3]: 3500 nM

SMILES: C=C(C)C(O)Cc1c2c(c(O)c3c1O[C@]14C(=C[C@H]5C[C@@H]1C(C)(C)O[C@@]4(C/C=C(\C)C(=O)O)C5=O)C3=O)C=CC(C)(C)O2 (stereo partly specified)
IC50 (HT-29 [2]): 2600 nM

SMILES: CO[C@@H]1[C@@H]2C[C@H]3C(C)(C)O[C@@](C/C=C(/C)C(=O)O)(C2=O)[C@]32Oc3c(CC=C(C)C)c4c(c(O)c3C(=O)[C@H]12)C=C[C@@](C)(CCC=C(C)C)O4
IC50 (HL-60): 830 nM

SMILES: CC(C)=CCC[C@@]1(C)C=Cc2c(O)c3c(c(CCC(C)(C)O)c2O1)O[C@]12C(=C[C@H]4C[C@@H]1C(C)(C)O[C@@]2(C/C=C(/C)C(=O)O)C4=O)C3=O
IC50 (NCI-H1650): 950 nM

SMILES: COCOc1cc(O)c2c(c1)OC13C(=CC4CC1C(C)(C)OC3(CC1OC1(C)C)C4=O)C2=O (stereo unspecified)
IC50 (A549): 2700 nM
IC50 (BGC-823): 310 nM

SMILES: CC(C)=CCC[C@@]1(C)C=Cc2c(O)c3c(c(C/C=C(\C)CO)c2O1)O[C@]12C(=C[C@H]4C[C@@H]1C(C)(C)O[C@@]2(C/C=C(/C)C(=O)O)C4=O)C3=O
IC50 (NCI-H1650): 620 nM

SMILES: CC(C)=CCC/C(C)=C/Cc1c(O)c(CC=C(C)C)c2c(c1O)C(=O)C1=C[C@@H]3C[C@H]4C(C)(C)O[C@@](C/C=C(\C)C=O)(C3=O)[C@@]14O2
IC50 (NCI-H1650): 970 nM

SMILES: COCOc1cc(O)c2c(c1)OC13C(=CC4CC1C(C)(C)OC3(C/C=C(\C)CBr)C4=O)C2=O (stereo unspecified)
IC50 (A549): 960 nM
IC50 (BGC-823): 1600 nM

SMILES: CC(C)=CCC/C(C)=C/Cc1c(O)c(CC=C(C)C)c2c(c1O)C(=O)C1=C[C@@H]3C[C@H]4C(C)(C)O[C@@](CC=C(C)C)(C3=O)[C@@]14O2
IC50 (NCI-H1650): 1100 nM

SMILES: CC(C)=CCc1c(O)c(CC=C(C)C)c2c(c1O)C(=O)C1=C[C@H]3C[C@@H]4C(C)(C)O[C@@](C/C=C(/C)C(=O)O)(C3=O)[C@@]14O2
IC50 (HT-29 [2]): 3200 nM

More lines, main results first:

IC50 (HT-29 [1]): 280 nM
SMILES: C=C(C)C(=O)O[C@H]1C[C@@]2(C)OC(=CC2=O)C(=C)[C@H](O)[C@H]2OC(=O)C(=C)[C@@H]21

IC50 (HepG2): > 10000 nM
SMILES: C=C1C(=O)O[C@@H]2C3O[C@]3(C)CC/C=C(\C)CC[C@@H]12 (stereo partly specified)

IC50 (HT-29 [1]): 580 nM
SMILES: C=C1C(=O)O[C@@H]2/C=C(/C)C3=CC(=O)[C@@](C)(C[C@H](OC(=O)C(C)C)[C@@H]12)O3

IC50 (A549): 3300 nM
IC50 (BGC-823): 3200 nM
SMILES: COCOc1cc(O)c2c(c1)OC13C(=CC4CC1C(C)(C)OC3(CC=C(C)C)C4=O)C2=O (stereo unspecified)

IC50 (HT-29 [1]): 150 nM
SMILES: C=C(C)C(=O)O[C@H]1C[C@@]2(C)OC(=CC2=O)[C@H](C)C(CC(=C)C(=O)O[C@H]2C[C@@]3(C)OC(=CC3=O)/C(C)=C\[C@H]3OC(=O)C(=C)[C@H]23)[C@H]2OC(=O)C(=C)[C@H]12 (stereo partly specified)

IC50 (HT-29 [1]): 4000 nM
SMILES: C=C1C(=O)O[C@@H]2C/C(C)=C\CC(=O)[C@](C)(OC(C)=O)C[C@H](OC(=O)/C(C)=C\C)[C@@H]12

IC50 (HT-29 [1]): > 10000 nM
SMILES: C=C(C)[C@@]1(O)O[C@H]2C[C@@]3(C)OC(=CC3=O)/C(C)=C\[C@H]3OC(=O)[C@@]1(C)[C@@H]23
IC50 (SNB-19): 100000 nM

IC50 (HT-29 [1]): 1400 nM
SMILES: C=C1C(=O)O[C@@H]2/C=C(/C)C3=CC(=O)[C@@](C)(C[C@H](OC(=O)/C(C)=C\C)[C@@H]12)O3
IC50 (SNB-19): 13800 nM

IC50 (A549): 1000 nM
IC50 (BGC-823): 5000 nM
SMILES: COCOc1cc(O)c2c(c1)OC13C(=CC4CC1C(C)(C)OC3(C/C=C(\C)C=O)C4=O)C2=O (stereo unspecified)
